Measured values taken from patent publication US6908628B2, “Disinfectant and antiseptic composition” (priority 2001, dated 2005).

Key:
Type in all cases: cell-based
[1] = system: S. aureus, S. epidermidis, E. faecalis, E. coli, K. pneumoniae, E. cloacae, P. mirabilis, Acinetobacter baumanii, P. aeruginosa, C. albicans, Mycobacterium …; assay: Bactericidal effect on endodontic files, whole panel of Example 1; conditions: 20 minutes
Protocol: For the determination of these three effects, the methods described by Herruzo et al in 1999 were used (Rev Stomatol Chir maxillofac 1999; 100: 299-305), which may be resumed as follows: • a) Bactericidal effect on instruments difficult to disinfect: No. 25 endodontic files.
These files are contaminated in a micro-organism for 30 minutes and after drying for 15 minutes in an oblique position, they are introduced in the disinfectant for 5, 10, 15, 20, etc. minutes. Afterwards, they are removed and submerged in a tube with glass beads and a disinfectant inhibitor (broth plus 6% Tween 80, plus 0.5% sodium bisulphite and 0.5% sodium thiosulphate). The tubes are then stirred for 1 minute to detach the surviving micro-organisms, and samples are cultured over the entire surface of agar plates with the culture medium suitable for the tested micro-organism (Müeller-Hinton or Saboureaud-dextrose for yeasts or HIB for mycobacteria, etc.). […] It is recorded if there was any deterioration or not and the time at which it occurred. […]

[2] = system: spores of B subtilis; assay: Sporicidal effect on commercial cellulose germ holder; conditions: reference disinfectant as such; 10 minutes
Protocol: In this case, another more demanding test was used, since the sporicidal effect was assessed. It is similar to the bactericidal effect, but instead of contaminated instruments, a commercial, cellulose germ holder was used, impregnated in spores. In fact, this is the biological control used in sterilisation by ethylene oxide: spores of B subtilis, at a concentration guaranteed by the manufacturer (3M) and which exceed a million spores per germ holder. The rest was similar to that described in the endodontic file method.

[3] = system: P. aeruginosa; assay: MIC in a solid medium; conditions: expressed as dilution of the product
From the text: (§1) This is shown by means of its MIC (minimum inhibiting concentration).
(§2) A MIC is obtained in a solid medium against S. aureus and P. aeruginosa.

[4] = system: S. aureus; assay: MIC in a solid medium; conditions: expressed as dilution of the product
From the text: as §1, §2

Row | Compound | bactericidal effect against Mycobacterium [1] | reduction of the spore inoculum [2] [log 10] | MIC (minimum inhibiting concentration) [3] | MIC (minimum inhibiting concentration) [4]
1 | O=CCCCC=O [2% glutaraldehyde, glutaraldehyde] | did not completely destroyed the inoculum | 1.5 | – | –
2 | [H]/N=C(\N/C(=N/[H])NCCCCCCNC(=N)NC(=N)Nc1ccc(Cl)cc1)Nc1ccc(Cl)cc1 [Clo, Chlorhexidine] | – | – | 1/2560 | 1/20480
3 | Didecyl-metyl-polyoxy-ethyl-ammonium propionate | – | – | 1/160 | 1/20480
